For 14 compounds, TGI results are on record in PubChem BioAssay (NCI).

A word on the TGI: it is the concentration at which net growth stops. High values mean less potent growth arrest, low ones more potent growth arrest.

Among the test systems are MDA-MB-231 breast; HCT-116 colon; U251 CNS; MDA-N; UO-31 renal; NCI-H460 lung; OVCAR-8 ovarian; PC-3 prostate; IGROV1 ovarian; UACC-62 melanoma.
Common to all, as to test: DTP human tumour cell line panel, 48 h

Molecules are shown by their SMILES.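 Five compound concentrations were applied to cells in 96-well plates for 48 hours; endpoints were derived by simple linear interpolation of the resulting dose-response curve. TGI is the concentration that stops growth completely.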

In the case of `C=CC(=O)N1C/C(=C\c2ccc([N+](=O)[O-])cc2)C(=O)/C(=C/c2ccc([N+](=O)[O-])cc2)C1`, the TGI in the assay on MDA-MB-231 breast turned out to be 0.278 µM; in the assay with HCT-116 colon it was 0.115 µM; with U251 CNS it was 0.978 µM; in the assay on MDA-N, 0.856 µM; with UO-31 renal, 0.375 µM; in the assay on NCI-H460 lung, 1.21 µM. Further, the TGI was found to be 0.727 µM in the assay with OVCAR-8 ovarian, 0.361 µM with PC-3 prostate, 0.419 µM in the assay with IGROV1 ovarian and 0.688 µM in the assay with UACC-62 melanoma.

For the compound `COc1cccc2cc(C(=O)Nc3ccccc3)c(=N)oc12`, the TGI in the assay on MDA-MB-231 breast, in the assay on HCT-116 colon, in the assay with U251 CNS, with MDA-N, in the assay with UO-31 renal and in the assay with NCI-H460 lung was greater than 100 µM in each case. For the same compound, the TGI in the assay with OVCAR-8 ovarian, with PC-3 prostate, in the assay on IGROV1 ovarian and in the assay with UACC-62 melanoma was greater than 100 µM throughout.

For the compound `O=C(C/C(=N/O)C(F)(F)F)c1cccs1`, the TGI in the assay with MDA-MB-231 breast, in the assay with HCT-116 colon, in the assay on U251 CNS, in the assay with MDA-N, with UO-31 renal and in the assay with NCI-H460 lung was greater than 100 µM throughout. In addition, the TGI in the assay with OVCAR-8 ovarian, with PC-3 prostate, in the assay on IGROV1 ovarian and with UACC-62 melanoma was greater than 100 µM throughout.

`O=[N+]([O-])c1cc2ccc(N(CCO)CCO)nc2nc1N(CCO)CCO`: the TGI with MDA-MB-231 breast, in the assay with HCT-116 colon, in the assay on U251 CNS, with MDA-N, in the assay on UO-31 renal and in the assay on NCI-H460 lung was greater than 100 µM in each case. Also, the TGI in the assay with OVCAR-8 ovarian, in the assay with PC-3 prostate, in the assay on IGROV1 ovarian and with UACC-62 melanoma was greater than 100 µM in each case.

Regarding `COC(=O)[C@]1(c2cc3ccccc3[nH]2)CC2CN(C(=O)OCc3ccccc3)C1CC2=O` (stereo partly specified), the TGI with MDA-MB-231 breast was 32.4 µM; in the assay with HCT-116 colon, greater than 100 µM; in the assay on U251 CNS, 34.1 µM; in the assay on MDA-N, greater than 100 µM; in the assay on UO-31 renal it was greater than 100 µM; in the assay with NCI-H460 lung, 77.6 µM. The TGI in the assay on OVCAR-8 ovarian is greater than 100 µM; with PC-3 prostate, 39 µM; in the assay with IGROV1 ovarian, greater than 100 µM; in the assay on UACC-62 melanoma it was 58.7 µM.

`Nc1ccc2ccc(N3CCNCC3)nc2n1`: the TGI in the assay with MDA-MB-231 breast, with HCT-116 colon, in the assay on U251 CNS, in the assay with MDA-N, in the assay on UO-31 renal and in the assay with NCI-H460 lung was greater than 100 µM each time. The TGI with OVCAR-8 ovarian, in the assay on PC-3 prostate, with IGROV1 ovarian and in the assay with UACC-62 melanoma was greater than 100 µM throughout.

Turning to `Nn1c(=O)[nH]c2ncn(Cc3ccccc3)c2c1=O`, the TGI in the assay on MDA-MB-231 breast, in the assay on HCT-116 colon, with U251 CNS, with MDA-N, in the assay with UO-31 renal and with NCI-H460 lung was greater than 100 µM throughout. Also, the TGI in the assay with OVCAR-8 ovarian, with PC-3 prostate, in the assay on IGROV1 ovarian and in the assay with UACC-62 melanoma was greater than 100 µM in each case.

Turning to `CCC(CC)(CO)CNc1cc(Cl)nc(N)n1`, the TGI in the assay with MDA-MB-231 breast, with HCT-116 colon, in the assay on U251 CNS, in the assay on MDA-N, in the assay on UO-31 renal and in the assay on NCI-H460 lung was greater than 100 µM throughout. Moreover, the TGI in the assay on OVCAR-8 ovarian, in the assay on PC-3 prostate, in the assay on IGROV1 ovarian and with UACC-62 melanoma was greater than 100 µM each time.

On to `Cc1[nH]c2ccccc2c1/C=N/NC(=O)c1cccc(I)c1`, for which the TGI came out at 57.7 µM with MDA-MB-231 breast; 51.4 µM in the assay on HCT-116 colon; 57 µM in the assay with U251 CNS; 52.4 µM in the assay with MDA-N; 61.6 µM in the assay on UO-31 renal; 36.1 µM with NCI-H460 lung. Moreover, the TGI is greater than 100 µM in the assay on OVCAR-8 ovarian, 66 µM in the assay with PC-3 prostate, 75.3 µM with IGROV1 ovarian and 34.5 µM in the assay with UACC-62 melanoma.

In the case of `CCN(CC)CC1CN=C(N)O1` (stereo unspecified), the TGI in the assay on MDA-MB-231 breast, in the assay on HCT-116 colon, in the assay with U251 CNS, in the assay with MDA-N, in the assay on UO-31 renal and with NCI-H460 lung was greater than 100 µM throughout. For the same compound, the TGI with OVCAR-8 ovarian, with PC-3 prostate, in the assay on IGROV1 ovarian and in the assay on UACC-62 melanoma was greater than 100 µM in each case.

For `COc1ccc(NC(C(N)=O)c2cc3cc(Br)ccc3nc2Cl)cc1` (stereo unspecified), the TGI in the assay on MDA-MB-231 breast, with HCT-116 colon, in the assay on MDA-N, with UO-31 renal, in the assay with NCI-H460 lung and in the assay with OVCAR-8 ovarian was greater than 100 µM in each case. Moreover, the TGI in the assay with PC-3 prostate, with IGROV1 ovarian and in the assay on UACC-62 melanoma was greater than 100 µM in each case.

On to `C/C=C(\C)C(=O)O[C@@H]1CC(C)(C)CC2C3=CCC4[C@]56CC[C@](O)(OC5)C(C)(C)C6CC[C@@]4(C)C3(C)CC[C@]21C(=O)O` (stereo partly specified), for which the TGI with MDA-MB-231 breast, with HCT-116 colon, in the assay on U251 CNS, in the assay with MDA-N, in the assay with NCI-H460 lung and in the assay on OVCAR-8 ovarian was greater than 100 µM throughout. The TGI in the assay with PC-3 prostate, in the assay on IGROV1 ovarian and in the assay with UACC-62 melanoma was greater than 100 µM each time.

In the case of `CN1CCc2c(sc3ncn(Nc4ccc(Cl)cc4)c(=N)c23)C1`, the TGI in the assay on MDA-MB-231 breast, with HCT-116 colon, in the assay on U251 CNS, with MDA-N, in the assay on NCI-H460 lung and with OVCAR-8 ovarian was greater than 100 µM in each case. Besides, the TGI with PC-3 prostate, with IGROV1 ovarian and with UACC-62 melanoma was greater than 100 µM each time.

`CCCCSC1=N/C(=C\c2ccc(N(C)C)cc2)C(=O)N1`: the TGI in the assay with MDA-MB-231 breast is 75.8 µM; with HCT-116 colon it was 74.9 µM; in the assay on U251 CNS it was 48.2 µM; with MDA-N it was greater than 100 µM; in the assay on NCI-H460 lung, 51.6 µM; in the assay on OVCAR-8 ovarian, greater than 100 µM. Also, the TGI in the assay on PC-3 prostate was 19.3 µM; in the assay on IGROV1 ovarian, greater than 100 µM; in the assay on UACC-62 melanoma, 81.3 µM.
